Counter-ions that a name gives are not always drawn. Like-named read-outs stand apart in the source and are kept apart here.
Legend:
recombinant PRL-3 = biological target: T1, recombinant PRL-3 (Homo sapiens, UniProt O75365); experiment: In vitro phosphatase assay (DiFMUP hydrolysis), PRL-3; format: biochemical; conditions: for IC50: DiFMUP at KM, read-out: Calculated IC50, PRL-3 phosphatase activity
T1 construct: 6xHis (N, cleaved yes); made in house; host or cells: E. coli One Shot BL21 Star

recombinant PRL-1 = biological target: T2, recombinant PRL-1 (Homo sapiens, UniProt Q93096); experiment: In vitro phosphatase assay (DiFMUP hydrolysis), PRL-1; format: biochemical; conditions: for IC50: DiFMUP at KM, read-out: Calculated IC50, PRL-1 phosphatase activity
T2 construct: 6xHis (N, cleaved yes); made in house; host or cells: E. coli One Shot BL21 Star
T2 sequence (Q93096 1-173): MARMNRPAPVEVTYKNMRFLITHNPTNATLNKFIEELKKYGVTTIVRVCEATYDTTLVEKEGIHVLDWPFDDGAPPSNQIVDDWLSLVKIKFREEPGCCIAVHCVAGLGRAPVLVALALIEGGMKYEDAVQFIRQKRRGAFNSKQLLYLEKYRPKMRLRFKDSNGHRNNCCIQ

recombinant PRL-2 = biological target: T3, recombinant PRL-2 (Homo sapiens, UniProt Q12974); experiment: In vitro phosphatase assay (DiFMUP hydrolysis), PRL-2; format: biochemical; conditions: for IC50: DiFMUP at KM, read-out: Calculated IC50, PRL-2 phosphatase activity;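 as to all read-outs here: PRL-2 activity read as DiFMUP hydrolysis after 20 min at room temperature with drug, enzyme first pre-reduced at 4 °C for 20 min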
T3 construct: 6xHis (N, cleaved yes); made in house; host or cells: E. coli One Shot BL21 Star
T3 sequence (Q12974 1-167): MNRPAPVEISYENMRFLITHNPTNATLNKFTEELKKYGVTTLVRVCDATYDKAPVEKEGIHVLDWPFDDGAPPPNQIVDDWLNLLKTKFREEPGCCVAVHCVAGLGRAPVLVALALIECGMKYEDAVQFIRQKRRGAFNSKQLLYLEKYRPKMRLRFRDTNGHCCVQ

HEK293T cells = experiment: MTT viability assay; format: cell-based, human; conditions: drug doses 1 to 100 µM, 16 h, normalized to 1% DMSO
Description: Cells were seeded into duplicate wells of a 96 well plate at a density of 2 × 10^4 cells per well and allowed to recover for 24 h. Cells were then treated with drug or DMSO at the indicated concentrations for 16 h. Following drug treatment, 10 μL of 5 mg/ml MTT (Sigma, M5655) was added to each well and cells were incubated for 4 h. Finally, media were removed, and the dye was solubilized in 100 μL of 0.1 M HCl in isopropanol. Absorbance was measured at 570 nm and 690 nm with final absorbance measurements as 570–690 nm.

[1] = FDA-approved drug screen, activity compared to DMSO
[2] = FDA-approved drug screen, compared to DMSO

T1 sequence (O75365 whole entry): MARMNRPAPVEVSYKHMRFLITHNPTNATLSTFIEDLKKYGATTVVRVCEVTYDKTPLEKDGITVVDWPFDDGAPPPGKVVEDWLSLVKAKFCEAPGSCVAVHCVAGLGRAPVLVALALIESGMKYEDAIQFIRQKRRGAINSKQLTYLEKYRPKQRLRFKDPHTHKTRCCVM

Molecule | % Phosphatase Activity (compared to DMSO) PRL-3 (recombinant PRL-3; [2]) [%] | % Phosphatase Activity (compared to DMSO) PRL-1 (recombinant PRL-1; [2]) [%] | % Phosphatase Activity (compared to DMSO) PRL-2 (recombinant PRL-2; [2]) [%] | further results
Vitamin B12 [reference compound] |  |  |  | % Phosphatase Activity (compared to DMSO) PRL-3 (recombinant PRL-3; [1]): -2%; IC50 (recombinant PRL-3; […] protein): 0.9 ± 0.1 µM; % Phosphatase Activity (compared to DMSO) PRL-1 (recombinant PRL-1; [1]): 2.68%; IC50 (recombinant PRL-1; […] protein): 0.7 ± 0.2 µM; % Phosphatase Activity (compared to DMSO) PRL-2 (recombinant PRL-2; [1]): -16%; IC50 (recombinant PRL-2; […] protein): 0.9 ± 0.2 µM; viability (MTT) (HEK293T cells): no effect on the viability
Cc1cc(C(C#N)c2ccc(Cl)cc2)c(Cl)cc1NC(=O)c1cc(I)cc(I)c1O (centres unmarked) [Closantel, reference compound] | 40 | 16 | 17 | IC50 (recombinant PRL-3; 2.5 µM protein): 11 ± 0.5 µM; IC50 (recombinant PRL-1; 2.5 µM protein): 17 ± 3 µM; IC50 (recombinant PRL-2; 2.5 µM protein): 14 ± 5 µM; viability (MTT) (HEK293T cells): increased MTT absorbance
COc1ccc(Cl)cc1C(=O)NCCc1ccc(S(=O)(=O)NC(=O)NC2CCCCC2)cc1 [Glyburide] | 77 | 104 | 100 | 
C#Cc1cccc(Nc2ncnc3cc(OCCOC)c(OCCOC)cc23)c1.Cl [Erlotinib HCl (OSI-744)] | 87 | 110 | 128 | 
Cc1nc(Nc2ncc(C(=O)Nc3c(C)cccc3Cl)s2)cc(N2CCN(CCO)CC2)n1 [Dasatinib] | 81 | 89 | 88 | 
CC(S)C(=O)NCC(=O)O (centres unmarked) [Tiopronin] |  |  |  | % Phosphatase Activity (compared to DMSO) PRL-3 (recombinant PRL-3; [1]): 98%; % Phosphatase Activity (compared to DMSO) PRL-1 (recombinant PRL-1; [1]): 90%; % Phosphatase Activity (compared to DMSO) PRL-2 (recombinant PRL-2; [1]): 119%
O=C(c1cc(Cc2n[nH]c(=O)c3ccccc23)ccc1F)N1CCN(C(=O)C2CC2)CC1 [Olaparib (AZD2281, Ku-0059436)] | 91 | 88 | 101 | 
Cc1nc2ccc(CN(C)c3ccc(C(=O)N[C@@H](CCC(=O)O)C(=O)O)s3)cc2c(=O)[nH]1 [Raltitrexed] | 71 | 80 | 71 | 
COc1ccc(/C=C\c2cc(OC)c(OC)c(OC)c2)cc1OP(=O)([O-])[O-].[Na+].[Na+] | 109 | 88 | 76 | 
CC1(C)S[C@@H]2[C@H](NC(=O)[C@H](N)c3ccccc3)C(=O)N2[C@H]1C(=O)O [Ampicillin sodium] | 92 | 120 | 127 | 
Cc1cc(C(C)(C)C)c(O)c(C)c1CC1=NCCN1 [Oxymetazoline hydrochloride] | 82 | 99 | 118 | 
CN(Cc1ccc(C(C)(C)C)cc1)Cc1cccc2ccccc12 [Butenafine HCl] | 88 | 117 | 112 | 
C[C@@H]1[C@H](O)[C@@H](C)/C=C/C=C/C=C/C=C/C=C/C=C/C=C/[C@H](O[C@@H]2O[C@H](C)[C@@H](O)[C@H](N)[C@@H]2O)C[C@@H]2O[C@](O)(C[C@@H](O)C[C@@H](O)[C@H](O)CC[C@@H](O)C[C@@H](O)CC(=O)O[C@H]1C)C[C@H](O)[C@H]2C(=O)O [Amphotericin B] | 80 | 102 | 92 | 
O=C(O)c1cccnc1 [Nicotinic Acid] |  |  |  | % Phosphatase Activity (compared to DMSO) PRL-3 (recombinant PRL-3): 91%; % Phosphatase Activity (compared to DMSO) PRL-1 (recombinant PRL-1): 95%; % Phosphatase Activity (compared to DMSO) PRL-2 (recombinant PRL-2): 94%
CC(CN(C)C)CN1c2ccccc2CCc2ccccc21 (centres unmarked) [Trimipramine Maleate] |  |  |  | % Phosphatase Activity (compared to DMSO) PRL-3 (recombinant PRL-3; [1]): 90%; % Phosphatase Activity (compared to DMSO) PRL-1 (recombinant PRL-1; [1]): 94%; % Phosphatase Activity (compared to DMSO) PRL-2 (recombinant PRL-2; [1]): 97%
Cc1nnc(NS(=O)(=O)c2ccc(N)cc2)s1 [Sulfamethizole] |  |  |  | % Phosphatase Activity (compared to DMSO) PRL-3 (recombinant PRL-3; [1]): 92%; % Phosphatase Activity (compared to DMSO) PRL-1 (recombinant PRL-1; [1]): 88%; % Phosphatase Activity (compared to DMSO) PRL-2 (recombinant PRL-2; [1]): 99%
Oc1ccc(Cl)c2cccnc12 [Cloxiquine] | 90 | 108 | 100 | 
O=C(NC[C@H](O)CO)c1ccncc1Nc1ccc(I)cc1F [Pimasertib (AS-703026)] | 84 | 99 | 92 | 
CC(=O)O[C@@]12CO[C@@H]1C[C@H](O)[C@@]1(C)C(=O)[C@H](O)C3=C(C)[C@@H](OC(=O)[C@H](O)[C@@H](NC(=O)OC(C)(C)C)c4ccccc4)C[C@@](O)([C@@H](OC(=O)c4ccccc4)[C@H]21)C3(C)C [Docetaxel Trihydrate] | 90 | 93 | 87 | 
CCOC(=O)[C@H](CCc1ccccc1)N[C@H]1CS[C@H](c2cccs2)CN(CC(=O)O)C1=O [Temocapril HCl] |  |  |  | % Phosphatase Activity (compared to DMSO) PRL-3 (recombinant PRL-3; [1]): 73%; % Phosphatase Activity (compared to DMSO) PRL-1 (recombinant PRL-1; [1]): 91%; % Phosphatase Activity (compared to DMSO) PRL-2 (recombinant PRL-2; [1]): 93%
N#C[C@@H]1C[C@@H]2C[C@@H]2N1C(=O)[C@@H](N)C12CC3CC(CC(O)(C3)C1)C2 [Saxagliptin] | 79 | 106 | 113 | 
c1ccc(CN(CC2=NCCN2)c2ccccc2)cc1 [Antazoline HCl] | 76 | 91 | 104 | 
Oc1cc(O)c(Cl)cn1 [Gimeracil] | 94 | 102 | 97 | 
C=CC[N+]1([C@H]2C[C@H]3[C@@H]4CC[C@H]5C[C@H](O)[C@@H](N6CCOCC6)C[C@]5(C)[C@H]4CC[C@]3(C)[C@H]2OC(C)=O)CCCC1 [Rocuronium Bromide] | 90 | 100 | 106 | 
O=C(c1ccc(OCCN2CCCCC2)cc1)c1c(-c2ccc(O)cc2)sc2cc(O)ccc12 [Raloxifene HCl] | 74 | 95 | 96 | 
O=C(O)CCc1nc2ccccc2[nH]1 [Procodazole] | 86 | 98 | 85 | 
CCc1cc(C(N)=S)ccn1 [Ethionamide] |  |  |  | % Phosphatase Activity (compared to DMSO) PRL-3 (recombinant PRL-3): 91%; % Phosphatase Activity (compared to DMSO) PRL-1 (recombinant PRL-1): 91%; % Phosphatase Activity (compared to DMSO) PRL-2 (recombinant PRL-2): 101%
CCCC(CCC)C(=O)[O-].[Na+] |  |  |  | % Phosphatase Activity (compared to DMSO) PRL-3 (recombinant PRL-3; [1]): 77%; % Phosphatase Activity (compared to DMSO) PRL-1 (recombinant PRL-1; [1]): 86%; % Phosphatase Activity (compared to DMSO) PRL-2 (recombinant PRL-2; [1]): 75%
CC(C)(CO)[C@@H](O)C(=O)NCCCO [D panthenol] | 90 | 93 | 80 | 
Nc1ncnc2c1ncn2[C@@H]1O[C@H](CO)[C@@H](O)[C@H]1O [Adenosine] | 87 | 100 | 93 | 
